Data reported in patent US20150315188A1, “COMPOUNDS AND METHODS FOR TREATMENT OF HYPERTENSION” (MEDIVATION TECHNOLOGIES, INC., priority 2012, published 2015).
Values joined by “and” are separate entries in the source; they are usually repeats but may differ in a detail not shown here. Equal entries are not always repeated.

What was measured:
Set-up in all cases: purchased Milipore (Millipore)
[1] = biological target: T1, Human adrenergic α2A receptor (Homo sapiens, UniProt P08913); experiment: Radioligand binding, adrenergic α2A (Protocol Group B); settings: Protocol Group B; for inhibition at 0.1 µM / Percentage inhibition of ligand binding, Adrenergic α2A (0.1 μM): 0.1 μM compound; for inhibition at 0.1 µM: read-out: Percentage inhibition of ligand binding, Adrenergic α2A (0.1 μM); for inhibition at 0.3 µM / Percentage inhibition of ligand binding, Adrenergic α2A (0.3 μM): 0.3 μM compound; for inhibition at 0.3 µM: read-out: Percentage inhibition of ligand binding, Adrenergic α2A (0.3 μM)
T1 sequence (P08913 1-465): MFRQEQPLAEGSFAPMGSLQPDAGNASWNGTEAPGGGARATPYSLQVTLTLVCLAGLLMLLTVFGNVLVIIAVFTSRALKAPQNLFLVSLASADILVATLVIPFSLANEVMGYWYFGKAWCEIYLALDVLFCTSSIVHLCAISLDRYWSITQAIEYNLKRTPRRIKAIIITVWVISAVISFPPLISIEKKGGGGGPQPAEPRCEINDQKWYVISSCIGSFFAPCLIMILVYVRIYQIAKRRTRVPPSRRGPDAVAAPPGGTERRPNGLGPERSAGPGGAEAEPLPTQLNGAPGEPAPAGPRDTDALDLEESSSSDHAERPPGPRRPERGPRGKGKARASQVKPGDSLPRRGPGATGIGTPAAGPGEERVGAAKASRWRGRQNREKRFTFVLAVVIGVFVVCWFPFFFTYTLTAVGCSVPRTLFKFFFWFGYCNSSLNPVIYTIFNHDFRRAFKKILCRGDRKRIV
Protocol: To evaluate the activity of compounds in radioligand binding assays, Human adrenergic α2A receptor obtained from recombinant cell membrane from Milipore. Binding experiments were carried out in Tris-HCl buffer (50 mM Tris-HCl buffer, pH 7.4, 5 mM Mgcl2, 1 mM Cacl2, 0.2% BSA) as recommended by Milipore. Compounds were incubated with 2 nM [^3H]MK-912 for 60 min at 25° C. Non-specific binding was estimated in the presence of 10 μM Rauwolscine. Receptor proteins were harvested on 0.33% PEI(poly-ethylenemine) soaked GFC filter mat, the specifically bound [^3H]MK-912 were counted to determine total binding. Compounds were screened at various concentrations, using 1% DMSO as vehicle. percent inhibition of specific binding was determined. Biochemical assay results are presented as the percent Inhibition of specific binding in Table B1b, or estimated Ki values in Table B1c.

[2] = biological target: T2, Human adrenergic α1B receptor (Homo sapiens, UniProt P35368); experiment: Radioligand binding, adrenergic α1B (Protocol Group B); settings: Protocol Group B; for inhibition at 0.1 µM / Percentage inhibition of ligand binding, Adrenergic α1B (0.1 μM): 0.1 μM compound; for inhibition at 0.1 µM: read-out: Percentage inhibition of ligand binding, Adrenergic α1B (0.1 μM); for inhibition at 0.3 µM / Percentage inhibition of ligand binding, Adrenergic α1B (0.3 μM): 0.3 μM compound; for inhibition at 0.3 µM: read-out: Percentage inhibition of ligand binding, Adrenergic α1B (0.3 μM)
T2 sequence (P35368 1-520): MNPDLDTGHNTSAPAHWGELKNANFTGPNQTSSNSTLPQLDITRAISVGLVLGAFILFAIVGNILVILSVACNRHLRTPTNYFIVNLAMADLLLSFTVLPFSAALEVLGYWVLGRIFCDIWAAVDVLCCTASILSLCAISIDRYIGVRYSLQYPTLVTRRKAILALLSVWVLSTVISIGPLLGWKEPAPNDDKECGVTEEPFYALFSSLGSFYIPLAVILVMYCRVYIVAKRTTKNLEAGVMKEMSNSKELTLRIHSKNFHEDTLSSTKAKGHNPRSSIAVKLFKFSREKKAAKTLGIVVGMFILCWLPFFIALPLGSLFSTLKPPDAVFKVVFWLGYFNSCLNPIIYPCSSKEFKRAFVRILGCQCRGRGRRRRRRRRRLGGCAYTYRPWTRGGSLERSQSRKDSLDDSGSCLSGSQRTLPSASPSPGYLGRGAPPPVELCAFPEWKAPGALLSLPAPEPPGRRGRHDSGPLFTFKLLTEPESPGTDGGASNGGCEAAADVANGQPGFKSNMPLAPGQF
Protocol: To evaluate the activity of compounds in radioligand binding assays, Human adrenergic α1B receptor obtained from recombinant cell membrane from Milipore. Binding experiments were carried out in Tris-HCl buffer (50 mM Tris-HCl buffer, pH 7.4, 10 mM Mgcl2, 1 mM EDTA) as recommended by Milipore. Compounds were incubated with 0.3 nM [^3H]Prazosin for 60 min at 25° C. Non-specific binding was estimated in the presence of 10 μM prazosin. Receptor proteins were harvested on 0.33% PEI(poly-ethylenemine) soaked GFC filter mat, the specifically bound [^3H]Prazosin were counted to determine total binding. Compounds were screened at various concentrations, using 1% DMSO as vehicle. percent inhibition of specific binding was determined. Biochemical assay results are presented as the percent Inhibition of specific binding in Table B1b, or estimated Ki values in Table B1c.

[3] = biological target: T3, Human adrenergic α2B receptor (Homo sapiens, UniProt P18089); experiment: Radioligand binding, adrenergic α2B (Protocol Group B); settings: Protocol Group B; for inhibition at 0.01 µM / Percentage inhibition of ligand binding, Adrenergic α2B (10 nM): 10 nM compound; for inhibition at 0.01 µM: read-out: Percentage inhibition of ligand binding, Adrenergic α2B (10 nM); for inhibition at 0.03 µM / Percentage inhibition of ligand binding, Adrenergic α2B (30 nM): 30 nM compound; for inhibition at 0.03 µM: read-out: Percentage inhibition of ligand binding, Adrenergic α2B (30 nM); for inhibition at 0.1 µM / Percentage inhibition of ligand binding, Adrenergic α2B (0.1 μM): 0.1 μM compound; for inhibition at 0.1 µM: read-out: Percentage inhibition of ligand binding, Adrenergic α2B (0.1 μM); for Percentage inhibition of ligand binding, Adrenergic α2B (10 nM): 0.01 µM; for Percentage inhibition of ligand binding, Adrenergic α2B (30 nM): 0.03 µM
T3 sequence (P18089 1-450): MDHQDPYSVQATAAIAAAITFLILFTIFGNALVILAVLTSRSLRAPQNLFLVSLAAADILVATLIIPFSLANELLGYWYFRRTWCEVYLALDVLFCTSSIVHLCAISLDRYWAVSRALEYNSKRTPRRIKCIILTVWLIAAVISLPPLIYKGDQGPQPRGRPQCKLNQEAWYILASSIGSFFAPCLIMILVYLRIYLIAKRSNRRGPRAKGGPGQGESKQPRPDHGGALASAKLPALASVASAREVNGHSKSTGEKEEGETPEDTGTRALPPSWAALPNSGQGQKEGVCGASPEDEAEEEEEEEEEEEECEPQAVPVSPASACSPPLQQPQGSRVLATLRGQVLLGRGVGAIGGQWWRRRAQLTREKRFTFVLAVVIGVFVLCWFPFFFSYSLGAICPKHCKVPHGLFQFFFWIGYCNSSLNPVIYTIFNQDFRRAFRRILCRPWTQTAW
Protocol: To evaluate the activity of compounds in radioligand binding assays, Human adrenergic α2B receptor obtained from recombinant cell membrane from Milipore. Binding experiments were carried out in Tris-HCl buffer (50 mM Tris-HCl buffer, pH 7.4, 5 mM Mgcl2, 1 mM Cacl2, 0.2% BSA) as recommended by Milipore. […] Non-specific binding was estimated in the presence of 10 μM Rauwolscine. […] Compounds were screened at various concentrations, using 1% DMSO as vehicle. Biochemical assay results are presented as the percent Inhibition of specific binding in Table B1b, or estimated Ki values in Table B1c.

Compound	inhibition at 0.1 µM [1] [%]	inhibition at 0.3 µM [1] [%]	inhibition at 0.1 µM [2] [%]	inhibition at 0.3 µM [2] [%]	inhibition at 0.01 µM [3] [%]	inhibition at 0.03 µM [3] [%]	inhibition at 0.1 µM [3] [%]	Percentage inhibition of ligand binding, Adrenergic α2A (0.1 μM) [1] [%]	Percentage inhibition of ligand binding, Adrenergic α2A (0.3 μM) [1] [%]	Percentage inhibition of ligand binding, Adrenergic α1B (0.1 μM) [2]	Percentage inhibition of ligand binding, Adrenergic α1B (0.3 μM) [2] [%]	Percentage inhibition of ligand binding, Adrenergic α2B (10 nM) [3] [%]	Percentage inhibition of ligand binding, Adrenergic α2B (30 nM) [3] [%]	Percentage inhibition of ligand binding, Adrenergic α2B (0.1 μM) [3] [%]	Ki ([3]; estimated Ki, read-out: Ki α2B) [nM]
Cc1ccc2c(c1)c1c(n2CC(OCC2CCC2)c2ccncc2)CCN(C)C1 (centres unmarked) [59b]	39	65	28	62	84	97	99								
Cc1cc(F)c2c(c1)c1c(n2CC(C)(O)c2ccncc2)CCN2CCCC12 (single isomer, unassigned) [81d]								11	6	5%	9	−7	8	18	
Cc1ccc2c(c1)c1c(n2CC(C)(O)c2ccc(N)nc2)CCN(C)C1 (centres unmarked) [compound 47, 2-(6-aminopyridin-3-yl)-1-(2,8-dimethyl-3,4-dihydro-1H-pyrido[4,3-b]indol-5(2H)-yl)propan-2-ol]	33	50	3	32	50	65	83								
Cc1ccc2c(c1)c1c(n2CC(O)c2cccnc2)C(O)CN(C)C1 (centres unmarked) [compound 24, 5-(2-Hydroxy-2-pyridin-3-yl-ethyl)-2,8-dimethyl-2,3,4,5-tetrahydro-1H-pyrido[4,3-b]indol-4-ol]	-15	4	-3	15	-25	0	29								
Cc1cc(F)c2c(c1)c1c(n2CC(C)(O)c2cccnc2)CC2CCCN2C1 (single isomer, unassigned) [61a]								9	34	1%	18	38	68	88	
CC(O)(Cn1c2c(c3cc(Cl)cc(F)c31)CN1CCCC1C2)c1ccncc1 (single isomer, unassigned) [86d]								7	11	3%	13	13	28		
Cc1ccc2c(c1)c1c(n2CC(O)c2ccncc2)CCN2CCCC12 (single isomer, unassigned) [Compound No. 178a]										73%					
Cc1ccc2c(c1)c1c(n2CC(O)c2ccncc2)CNC2CCCC12 (single isomer, unassigned) [34d]								−2	−1	6%	22	14	2	25	
Cc1ccc2c(c1)c1c(n2CC(C)(O)c2ccncc2)CC2CCCN2C1 (single isomer, unassigned) [37b]								15	17	40%	68	25	48	75	
Cc1cc(C)c2c(c1)c1c(n2CC(C)(O)c2cccnc2)CCN2CCCC12 (single isomer, unassigned) [44d]								−17	−16	−5%	0	−17	−11		
Cc1ccc2c(c1)c1c(n2CC(C)(O)c2ccc(OCC3CC3)nc2)CCN(C)C1 (centres unmarked) [compound 56, 2-(6-(cyclopropylmethoxy)pyridin-3-yl)-1-(2,8-dimethyl-3,4-dihydro-1H-pyrido[4,3-b]indol-5(2H)-yl)propan-2-ol]	1	9	12	38	17	48	74								
CC(O)(Cn1c2c(c3cc(F)ccc31)C1CCCN1CC2)c1cccnc1 (centres unmarked) [compound 51]															1.58
Cc1ccc2c(c1)c1c(n2CC(O)c2ccncc2)CCN2CCCC12 (single isomer, unassigned) [Compound No. 178b]								55		69%					
Cc1ccc2c(c1)c1c(n2CC(O)c2ccncc2)CCN2CCCC12 (single isomer, unassigned) [Compound No. 178c]								35		94% and 96%					
